“Also recorded” adds a separate entry of the source.
Assays:
AsPC-1 and PANC-1 cells = assay: Cell adhesion assay on collagen I matrix; assay type: cell-based; conditions: pre-treatment 5 minutes, 10 μM 007-AM
Procedure: FIG. 13 ESI-09 inhibits EPAC1-mediated adhesion of PDA cells on collagen I. AsPC-1 and PANC-1 cells were stimulated with vehicle or 10 μM 007-AM after treatment with the indicated concentrations of ESI-09 for 5 minutes. Bars represent mean±s.d.
It has been recently reported that EPAC1 is over-expressed in pancreatic adenocarcinoma (Lorenz et al. (2008) Pancreas 37: 102-103). However, the functional role of EPAC1 elevation in this neoplasm is not clear. The inventors sought to employ ESI-09 to determine the role of EPAC1 signaling in pancreatic cancer. […] In order to determine if the observed impact on cell migration is EPAC1 specific, the effect of suppressing EPAC1 expression on AsPC-1 and PANC-1 migration using RNAi was examined. […] To further determine how ESI-09 inhibits PDA cell migration and invasion, a cell adhesion assay was performed using a collagen I matrix. […] To determine the in vivo anti-metastatic effect of ESI-09, MIA PaCa-2 stably expressing luciferase were orthotopically implanted into the pancreas of athymic nude mice. The mice were randomly divided into two groups and treated with vehicle or ESI-09 (50 mg/kg per day, oral gavage), respectively. The growth and metastasis of the tumors were monitored by weekly bioluminescence imaging using the IVIS bioluminescence imaging system.

pSTAT3 Y705 = assay: Leptin signaling in organotypic brain slice cultures, Western blotting; assay type: cell-based, mice; conditions: basal state and in response to leptin stimulation
Procedure: FIGS. 17A-17B. Pharmacological inhibition of EPAC reduces plasma leptin and enhances leptin signaling in hypothalamus (A) Western blotting of pSTAT3 Y705, total STAT3, SOCS3, SHP2 and α-tubulin in organotypic brain slices at hypothalamus level treated with leptin with or without EPAC specific inhibitor. (B) Plasma leptin levels of 8-week-old wild-type mice treated 3 weeks with vehicle or ESI-09 (50 mg/kg).
To explore the feasibility of increasing leptin sensitivity by targeting Epac1 using small molecules, organotypic brain slice cultures were prepared from 11-day old wild-type C57BL/6 mice. After 7 days ex vivo culture, treatment of the brain tissue with the Epac specific antagonist ESI-09 led to an enhanced pSTAT3 Y705 level both at the basal state and in response to leptin stimulation. […] These pharmacological data are in agreement with results obtained using Epac1 KO mice and further confirm that inhibition of Epac1 enhances leptin signaling in the hypothalamus. To further investigate the therapeutic potential of this small molecule, wild-type mice were with ESI-09 (50 mg/kg) or vehicle (corn oil) by oral gavage for 3 weeks.

EPAC2 = biological target: T1, EPAC2 (Mus musculus, UniProt Q9EQZ6); assay: Rap1-GDP exchange (GEF) activity assay, EPAC2
T1 sequence (Q9EQZ6 1-1011): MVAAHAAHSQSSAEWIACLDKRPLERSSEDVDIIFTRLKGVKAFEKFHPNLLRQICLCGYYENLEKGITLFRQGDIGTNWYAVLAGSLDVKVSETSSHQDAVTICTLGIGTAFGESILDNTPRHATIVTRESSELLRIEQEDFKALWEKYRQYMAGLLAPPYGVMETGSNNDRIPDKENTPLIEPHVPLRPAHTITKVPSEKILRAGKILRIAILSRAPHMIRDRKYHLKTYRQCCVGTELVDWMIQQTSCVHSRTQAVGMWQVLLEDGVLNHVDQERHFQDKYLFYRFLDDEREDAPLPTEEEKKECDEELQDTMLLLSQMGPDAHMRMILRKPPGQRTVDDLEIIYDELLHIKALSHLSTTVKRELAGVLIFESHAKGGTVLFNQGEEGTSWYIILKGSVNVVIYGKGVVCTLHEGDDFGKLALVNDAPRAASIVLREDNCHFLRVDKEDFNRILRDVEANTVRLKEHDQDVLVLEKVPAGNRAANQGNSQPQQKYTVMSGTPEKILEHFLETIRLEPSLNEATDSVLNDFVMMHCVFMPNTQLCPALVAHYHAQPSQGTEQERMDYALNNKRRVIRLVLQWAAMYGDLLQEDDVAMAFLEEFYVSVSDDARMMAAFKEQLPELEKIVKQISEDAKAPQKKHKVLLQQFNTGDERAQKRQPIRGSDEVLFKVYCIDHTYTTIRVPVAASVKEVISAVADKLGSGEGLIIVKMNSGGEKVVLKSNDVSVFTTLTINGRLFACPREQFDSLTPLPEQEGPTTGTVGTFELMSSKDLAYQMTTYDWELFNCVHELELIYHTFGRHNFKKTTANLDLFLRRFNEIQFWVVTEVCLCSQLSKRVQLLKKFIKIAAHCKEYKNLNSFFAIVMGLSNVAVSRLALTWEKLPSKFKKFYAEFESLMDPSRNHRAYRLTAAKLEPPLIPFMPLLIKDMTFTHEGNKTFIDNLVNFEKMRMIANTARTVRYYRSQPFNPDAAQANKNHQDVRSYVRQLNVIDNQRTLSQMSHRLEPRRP
Procedure: Exchange of Mant-GDP by GDP was measured as a decrease in fluorescence intensity over time using a FluoroMax-3 spectrofluorometer with excitation/emission wavelengths set at 366/450 nm. Typically, decay in the fluorescence intensity was recorded over a time course of 6000 s with data points taken every 60 s.

[1] = test system: CD4+CD25− (Tconv) proliferation in the presence Tregs; assay: In vitro Treg suppression assay of Tconv proliferation; assay type: cell-based, mice; conditions: assay repeated in the presence of ESI-09; compared with Epac1 KO outcome
From the text: The suppressive potency of WT and Epac1 KO Tregs was examined using an in vitro assay that examines CD4+CD25− (Tconv) proliferation in the presence Tregs. Epac1 KO Tconv and WT Tconv proliferated at the same rate when cultured alone. The addition of WT Tregs suppressed the proliferation of both cell populations to the same extent, while the addition of Epac1 KO Tregs suppressed the proliferation of Epac1 KO Tconv to a much lesser degree than it did WT Tconv's.

Q: Which results are given for `CC(C)(C)c1cc(C(=O)C(C#N)=NNc2cccc(Cl)c2)no1` [ESI-09, 3-(5-Tert-Butyl-Isoxazol-3-Yl)-2-[(3-Chlorophenyl)-Hydrazono]-3-Oxo-Propionitrile]?
A: 007-AM induced cell adhesion (AsPC-1 and PANC-1 cells): decreased 007-AM induced cell adhesion dose-dependently; also recorded: inhibits; pSTAT3 Y705 level (pSTAT3 Y705): enhanced; IC50 (EPAC2): 1.4 ± 0.1 µM; Tregs mediated suppression of Tconv [1]: the outcome was similar

From patent US9539256B2 (THE BOARD OF REGENTS OF THE UNIVERSITY OF TEXAS SYSTEM, priority 2012, dated 2017)
